This note sets out measurements from patent US8846947B2, “Benzimidazoles and related analogs as sirtuin modulators” (GlaxoSmithKline LLC, priority 2008, dated 2014).

For the test, the target named is T1, SIRT1 (Homo sapiens, UniProt Q96EB6).
T1 sequence (Q96EB6 1-747): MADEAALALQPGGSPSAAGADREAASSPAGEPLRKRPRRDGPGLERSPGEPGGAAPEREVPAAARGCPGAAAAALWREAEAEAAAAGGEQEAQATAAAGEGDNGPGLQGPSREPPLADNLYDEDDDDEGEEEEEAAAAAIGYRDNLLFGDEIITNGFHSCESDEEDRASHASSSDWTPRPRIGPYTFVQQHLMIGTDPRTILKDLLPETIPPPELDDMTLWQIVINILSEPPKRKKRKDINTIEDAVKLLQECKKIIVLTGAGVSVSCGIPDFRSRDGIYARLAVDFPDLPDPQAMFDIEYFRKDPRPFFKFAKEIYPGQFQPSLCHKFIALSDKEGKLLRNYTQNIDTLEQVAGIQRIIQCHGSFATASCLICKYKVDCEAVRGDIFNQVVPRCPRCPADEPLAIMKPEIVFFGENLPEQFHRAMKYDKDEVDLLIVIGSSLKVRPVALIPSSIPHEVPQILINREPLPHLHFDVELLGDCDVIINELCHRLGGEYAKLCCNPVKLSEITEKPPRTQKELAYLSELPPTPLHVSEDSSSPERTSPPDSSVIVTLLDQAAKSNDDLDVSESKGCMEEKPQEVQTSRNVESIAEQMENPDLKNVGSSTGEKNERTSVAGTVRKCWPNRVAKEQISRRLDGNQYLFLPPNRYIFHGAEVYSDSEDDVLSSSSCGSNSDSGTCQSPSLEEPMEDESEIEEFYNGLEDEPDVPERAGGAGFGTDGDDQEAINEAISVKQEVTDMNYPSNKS
As to the kind of experiment: Mass spectrometry based SIRT1 deacetylase activation assay (acetylated p53-derived peptide substrate). It is filed as biochemical.

The mark [1] stands for this setting: 0.5 μM peptide substrate, 120 μM βNAD+, 10 nM SIRT1, 25 minutes at 25° C.
[2] abbreviates: 0.5 μM peptide substrate, 120 μM βNAD+, 10 nM SIRT1, 25 min at 25° C.
Setting [3] is: 0.5 μM peptide substrate, 120 μM βNAD+, 10 nM SIRT1, 25 min at 25° C., read-out: EC1.5.

Like-named read-outs stand apart in the source and are kept apart here.

With `Cc1cnc(NC(=O)c2cccc3[nH]c(-c4cc(F)ccc4C(F)(F)F)nc23)s1` [Compound 376], the EC1.5 entry is “A (EC1.5<1.0 uM)” and the “Fold Act. (percent maximum fold activation)” value is given as “A (Fold activation >200%)”.
`O=C(Nc1cccc(OC[C@H](O)CO)c1)c1cccc2[nH]c(-c3cc(F)ccc3F)nc12` [Compound 785]: under setting [1], the EC1.5 entry is given as “A (EC1.5<1.0 uM)” and the “Fold Act. (percent maximum fold activation)” value is “A (Fold activation >200%)”.
As to `O=C(NC1CCCC1)c1cccc2[nH]c(-c3cccc(C(F)(F)F)c3)nc12` [Compound 276], the EC1.5 result is reported as “C (EC1.5 >25 uM)” and the “Fold Act. (percent maximum fold activation)” value is given as “B (Fold Activation <200%)”.
As to `O=C(Nc1nc(CN2CCOCC2)cs1)c1cccc2[nH]c(-c3cccnc3)nc12` [Compound 795], under setting [1], the EC1.5 entry is on record as “C (EC1.5 >25 uM)” and the “Fold Act. (percent maximum fold activation)” value is listed as “B (Fold Activation <200%)”.
Consider `O=C(Nc1ccccn1)c1cccc2[nH]c(-c3ccc(OC4CCNC4)cc3)nc12` (stereo not shown) [Compound 442], for which, under setting [2], the “Fold Act. (percent maximum fold activation)” value is “A (Fold activation >200%)”. Further, the EC1.5 under setting [3] was below 1000 nM.
For the compound `O=C(Nc1nccs1)c1cccc2[nH]c(-c3ccc(OC[C@@H](O)CO)cc3C(F)(F)F)nc12` [Compound 745], under setting [1], the EC1.5 entry is “A (EC1.5<1.0 uM)” and the “Fold Act. (percent maximum fold activation)” value was “A (Fold activation >200%)”.
The corresponding values for `O=C(Nc1cccc(OCC(O)CO)c1)c1cccc2[nH]c(-c3ccc(Cl)cc3C(F)(F)F)nc12` (stereo not shown) [Compound 678] are “A (EC1.5<1.0 uM)” and “A (Fold activation >200%)”.
Take `O=C(Nc1cccnc1)c1cccc2[nH]c(-c3ccc(N4CCOCC4)cc3C(F)F)nc12` [Compound 554]: the “Fold Act. (percent maximum fold activation)” value under setting [2] is “A (Fold activation >200%)”. For the same compound, the EC1.5 under setting [3] was below 1000 nM.
Turning to `O=C(NC1CCNCC1)c1cccc2[nH]c(-c3cc(F)ccc3C(F)(F)F)nc12` [Compound 438], the “Fold Act. (percent maximum fold activation)” value under setting [2] is listed as “B (Fold Activation <200%)”. Also, under setting [3], the EC1.5 was above 25000 nM.
As for `O=C(Nc1ccccn1)c1cc(F)cc2nc(-c3ccc(Cl)cc3C(F)F)[nH]c12` [Compound 823], under setting [1], the EC1.5 entry is given as “A (EC1.5<1.0 uM)” and the “Fold Act. (percent maximum fold activation)” value is “A (Fold activation >200%)”.
The corresponding values for `O=C(Nc1cccnn1)c1cncc2[nH]c(-c3ccc(N4CCCC4)cc3C(F)F)nc12` [Compound 802] are “A (EC1.5<1.0 uM)” and “A (Fold activation >200%)”.
For the compound `FC(F)(F)c1cc(Cl)ccc1-c1nc2c(NCc3cccnc3)cccc2[nH]1` [Compound 669], under setting [1], the EC1.5 entry was “C (EC1.5 >25 uM)” and the “Fold Act. (percent maximum fold activation)” value was “B (Fold Activation <200%)”.
For `Cc1cc(NC(=O)c2cccc3[nH]c(-c4ccccc4C(F)(F)F)nc23)n(C)n1` [Compound 354], the EC1.5 entry was “A (EC1.5<1.0 uM)” and the “Fold Act. (percent maximum fold activation)” value was “A (Fold activation >200%)”.
Turning to `Cc1cnc(NC(=O)c2cncc3[nH]c(-c4ccc(OC[C@@H](O)CO)cc4C(F)(F)F)nc23)s1` [Compound 759], under setting [1], the EC1.5 result is “A (EC1.5<1.0 uM)” and the “Fold Act. (percent maximum fold activation)” value was “A (Fold activation >200%)”.
Turning to `Cc1cc(NC(=O)c2cccc3[nH]c(-c4ccc(Cl)cc4C(F)(F)F)nc23)n(C)n1` [Compound 356], the EC1.5 entry is reported as “A (EC1.5<1.0 uM)” and the “Fold Act. (percent maximum fold activation)” value was “A (Fold activation >200%)”.
On to `Cc1cnc(NC(=O)c2cncc3nc(-c4ccc(OC[C@H](O)CO)cc4C(F)F)[nH]c23)s1` [Compound 809], for which, under setting [1], the EC1.5 entry is listed as “A (EC1.5<1.0 uM)” and the “Fold Act. (percent maximum fold activation)” value is “A (Fold activation >200%)”.
The corresponding values for `Cc1ccc(-c2nc3c(C(=O)Nc4nc(CN5CCOCC5)cs4)cccc3[nH]2)cn1` [Compound 843] are “A (EC1.5<1.0 uM)” and “A (Fold activation >200%)”.
Turning to `O=C(Nc1cccnn1)c1cccc2[nH]c(-c3cc(F)ccc3C(F)(F)F)nc12` [Compound 456], the “Fold Act. (percent maximum fold activation)” value under setting [2] is on record as “A (Fold activation >200%)”. In addition, the EC1.5 under setting [3] was below 1000 nM.
Taken in the same sequence, the figures for `Cc1nc(NC(=O)c2cccc3[nH]c(-c4ccc(N5CCOCC5)cc4C(F)(F)F)nc23)sc1C` [Compound 589] were “A (Fold activation >200%)” and below 1000 nM.
The corresponding values for `O=C(Nc1nccs1)c1cccc2[nH]c(-c3ccc(OC4CCNCC4)cc3)nc12` [Compound 447] are “A (Fold activation >200%)” and below 1000 nM.
`O=C(Nc1ccc(OC[C@H](O)CO)cc1)c1cccc2[nH]c(-c3cccnc3)nc12` [Compound 797]: under setting [1], the EC1.5 result is on record as “A (EC1.5<1.0 uM)” and the “Fold Act. (percent maximum fold activation)” value is given as “A (Fold activation >200%)”.
With `Cc1cnc(NC(=O)c2cccc3[nH]c(-c4ccc(Cl)cc4C(F)(F)F)nc23)s1` [Compound 346], the EC1.5 result is reported as “A (EC1.5<1.0 uM)” and the “Fold Act. (percent maximum fold activation)” value is “A (Fold activation >200%)”.
Taken in the same sequence, the figures for `O=C(Nc1nccs1)c1cccc2[nH]c(-c3cccc(Cl)c3)nc12` [Compound 219] were “B (EC1.5 1-25 uM)” and “A (Fold activation >200%)”.
`O=C(Nc1ccccn1)c1cccc2[nH]c(-c3ccccc3C(F)(F)F)nc12` [Compound 248]: the EC1.5 entry is “B (EC1.5 1-25 uM)” and the “Fold Act. (percent maximum fold activation)” value is reported as “A (Fold activation >200%)”.
Turning to `Cc1cnc(NC(=O)c2cccc3[nH]c(-c4ccc5c(c4)NC(=O)CO5)nc23)s1` [Compound 534], under setting [2], the “Fold Act. (percent maximum fold activation)” value is listed as “A (Fold activation >200%)”. The EC1.5 under setting [3] was below 1000 nM.
`O=C(Nc1ccc(OC[C@@H](O)CO)cc1)c1cccc2[nH]c(-c3cccc(N4CCOCC4)c3)nc12` [Compound 787]: under setting [1], the EC1.5 result was “A (EC1.5<1.0 uM)” and the “Fold Act. (percent maximum fold activation)” value is “A (Fold activation >200%)”.
The corresponding values for `Cc1cc(OC[C@H](O)CO)ccc1-c1nc2c(C(=O)Nc3nccs3)cccc2[nH]1` [Compound 793] are “A (EC1.5<1.0 uM)” and “A (Fold activation >200%)”.
Consider `Cn1ccc(-c2nc3c(C(=O)Nc4nccs4)cccc3[nH]2)n1` [Compound 303], for which the EC1.5 entry is reported as “B (EC1.5 1-25 uM)” and the “Fold Act. (percent maximum fold activation)” value is reported as “A (Fold activation >200%)”.
With `O=C(Nc1ccc(CN2CCCC2)nc1)c1cccc2[nH]c(-c3cc(F)ccc3C(F)(F)F)nc12` [Compound 687], under setting [1], the EC1.5 result is listed as “A (EC1.5<1.0 uM)” and the “Fold Act. (percent maximum fold activation)” value is listed as “A (Fold activation >200%)”.
As to `O=C(Nc1nccs1)c1cccc2[nH]c(-c3ccccc3OCCN3CCCC3)nc12` [Compound 482, 2-(2-(2-(pyrrolidin-1-yl)ethoxy)phenyl)-N-(thiazol-2-yl)-1H-benzo[d]imidazole-4-carboxamide], under setting [2], the “Fold Act. (percent maximum fold activation)” value is on record as “A (Fold activation >200%)”. Further, under setting [3], the EC1.5 is 1000 to 25000 nM.
Regarding `O=C(Nc1cccc2[nH]c(-c3cccc(C(F)(F)F)c3)nc12)c1cnccn1` [Compound 335], the EC1.5 entry is “B (EC1.5 1-25 uM)” and the “Fold Act. (percent maximum fold activation)” value was “A (Fold activation >200%)”.
The corresponding values for `O=C(Nc1cccc2[nH]c(-c3cccc(C(F)(F)F)c3)nc12)c1ccccn1` [Compound 333] are “B (EC1.5 1-25 uM)” and “A (Fold activation >200%)”.
The corresponding values for `O=C(Nc1nccs1)c1cccc2[nH]c(-c3cccc(OC(F)(F)F)c3)nc12` [Compound 204] are “A (EC1.5<1.0 uM)” and “A (Fold activation >200%)”.
In the case of `O=C(Nc1nccs1)c1cc(N2CCOCC2)cc2[nH]c(-c3ccc(F)cc3C(F)(F)F)nc12` [Compound 689], under setting [1], the EC1.5 result is “A (EC1.5<1.0 uM)” and the “Fold Act. (percent maximum fold activation)” value was “A (Fold activation >200%)”.
Turning to `CCCN1CCCc2ccc(-c3nc4c(C(=O)Nc5cccnc5)cccc4[nH]3)cc21` [Compound 497], under setting [2], the “Fold Act. (percent maximum fold activation)” value was “A (Fold activation >200%)”. Besides, the EC1.5 under setting [3] lay in the range of 1000 to 25000 nM.
The corresponding values for `CS(=O)(=O)c1ccc(-c2nc3c(C(=O)Nc4nccs4)cccc3[nH]2)cc1` [Compound 405] are “B (Fold Activation <200%)” and 1000 to 25000 nM.
The corresponding values for `CN1CCOc2cc(-c3nc4c(C(=O)Nc5cccnn5)cccc4[nH]3)cnc21` [Compound 457] are “A (Fold activation >200%)” and below 1000 nM.
For the compound `O=C(Nc1cnccn1)c1cccc2[nH]c(-c3ccccc3OCCN3CCOCC3)nc12` [Compound 489], the “Fold Act. (percent maximum fold activation)” value under setting [2] was “B (Fold Activation <200%)”. In addition, the EC1.5 under setting [3] is 1000 to 25000 nM.
